# Laboratory results published in US7951954B2, “Bezothiazol derivatives as Beta2 adrenoreceptor agonists” (AstraZeneca AB, priority 2006, dated 2011).
# Structures can show the parent of a compound that is named as a salt. Where two headings read alike, the source gives them in different places.
# Key:
# [1] = biological target: T1, recombinant human α1D receptor (Homo sapiens, UniProt P25100); experiment: Adrenergic α1D selectivity assay, [3H]-prazosin binding to HEK293 membranes; conditions: inhibition of [3H]-prazosin binding, HEK293 membranes with recombinant human α1D; read-out: α1D pEC50 (converted)
# T1 construct: expressed in transfected cells; host or cells: HEK293
# T1 sequence (P25100 1-572): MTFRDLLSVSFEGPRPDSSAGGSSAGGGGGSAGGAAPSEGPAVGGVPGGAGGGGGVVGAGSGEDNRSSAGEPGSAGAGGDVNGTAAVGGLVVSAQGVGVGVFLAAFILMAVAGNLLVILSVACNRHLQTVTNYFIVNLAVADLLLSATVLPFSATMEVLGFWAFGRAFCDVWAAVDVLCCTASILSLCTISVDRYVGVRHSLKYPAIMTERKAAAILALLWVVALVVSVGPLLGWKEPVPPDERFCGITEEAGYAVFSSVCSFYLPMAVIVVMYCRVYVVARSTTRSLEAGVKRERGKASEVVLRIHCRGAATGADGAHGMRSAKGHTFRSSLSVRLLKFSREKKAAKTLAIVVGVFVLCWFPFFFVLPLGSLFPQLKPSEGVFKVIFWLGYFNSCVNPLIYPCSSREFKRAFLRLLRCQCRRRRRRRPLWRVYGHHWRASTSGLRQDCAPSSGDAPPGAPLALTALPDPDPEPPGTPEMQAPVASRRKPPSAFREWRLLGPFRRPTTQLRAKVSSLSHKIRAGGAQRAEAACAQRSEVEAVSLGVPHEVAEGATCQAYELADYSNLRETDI
# Experimental: (§1) These were diluted in Assay Buffer (50 mM HEPES, 1 mM EDTA, 0.1% gelatin, pH 7.4) to provide a final concentration of membranes that gave a clear window between maximum and minimum specific binding.
# Assays were performed in U-bottomed 96-well polypropylene plates. […] For each assay plate 8 replicates were obtained for [^3H]-prazosin binding in the presence of 10 μL vehicle (10% (v/v) DMSO in Assay Buffer; defining maximum binding) or 10 μL BMY7378 (10 μM final concentration; defining non-specific binding (NSB)). Membranes were then added to achieve a final volume of 100 μL. The plates were incubated for 2 hours at room temperature and then filtered onto PEI coated GF/B filter plates, pre-soaked for 1 hour in Assay Buffer, using a 96-well plate Tomtec cell harvester. Five washes with 250 μL wash buffer (50 mM HEPES, 1 mM EDTA, pH 7.4) were performed at 4° C. to remove unbound radioactivity. The plates were dried then sealed from underneath using Packard plate sealers and MicroScint-O (50 μL) was added to each well. The plates were sealed (TopSeal A) and filter-bound radioactivity was measured with a scintillation counter (TopCount, Packard BioScience) using a 3-minute counting protocol.
# (§2) Total specific binding (B0) was determined by subtracting the mean NSB from the mean maximum binding. NSB values were also subtracted from values from all other wells.
# [2] = biological target: T2, recombinant human adrenergic beta 1 receptors (Homo sapiens, UniProt P08588); experiment: Adrenergic β1 selectivity assay, [125I]-Iodocyanopindolol binding to membranes; conditions: inhibition of [125I]-Iodocyanopindolol binding, read-out: β1 pEC50 (converted)
# T2 construct: purchased Euroscreen
# Experimental: as §1, with “Membranes containing recombinant human adrenergic beta 1 receptors were obtained from Euroscreen. These” for “These”, “EDTA, 120 mM NaCl,” for “EDTA,”
# Assays were performed in U-bottomed 96-well polypropylene plates. 10 μL [^125I]-Iodocyanopindolol (0.036 nM final concentration) and 10 μL of test compound (10× final concentration) were added to each test well. For each assay plate 8 replicates were obtained for [^125I]-Iodocyanopindolol binding in the presence of 10 μL vehicle (10% (v/v) DMSO in Assay Buffer; defining maximum binding) or 10 μL Propranolol (10 μM final concentration; defining non-specific binding (NSB)). Membranes were then added to achieve a final volume of 100 μL. The plates were incubated for 2 hours at room temperature and then filtered onto PEI coated GF/B filter plates, pre-soaked for 1 hour in Assay Buffer, using a 96-well plate Tomtec cell harvester. Five washes with 250 μL wash buffer (50 mM HEPES, 1 mM EDTA, 120 mM NaCl, pH 7.4) were performed at 4° C. to remove unbound radioactivity. The plates were dried then sealed from underneath using Packard plate sealers and MicroScint-O (50 μL) was added to each well. The plates were sealed (TopSeal A) and filter-bound radioactivity was measured with a scintillation counter (TopCount, Packard BioScience) using a 3-minute counting protocol.
# as §2
# Adrenergic β2 = biological target: T3, Adrenergic β2 (Homo sapiens, UniProt P07550); experiment: Adrenergic β2 mediated cAMP production in H292 cells (AlphaScreen cAMP detection); assay type: cell-based
# T3 construct: endogenous in cells; host or cells: H292 cells
# Experimental: Adrenergic β2 Mediated cAMP Production
# H292 cells were grown in RPMI (Roswell Park Memorial Institute) medium containing, 10% (v/v) FBS (foetal bovine serum) and 2 mM L-glutamine. Cells were grown in 225 cm2 flasks containing 25 mL media in a humidified incubator at 37° C., 5% CO2. Cells were harvested from the flask and passaged at a 1 in 10 dilution once per week.
# The media from flasks containing H292 cells was removed, rinsed with 10 mL PBS phosphate buffered saline) and replaced with 10 mL Accutase™ cell detachment solution. Flasks were incubated for 15 minutes in a humidified incubator at 37° C., 5% CO2. The cell suspension was counted and the cells re-suspended in RPMI media (containing 10% (v/v) FBS and 2 mM L-glutamine) at 0.05×10^6 cells per mL. 5000 cells in 100 μL were added to each well of a tissue-culture-treated 96-well plate and the cells incubated overnight in a humidified incubator at 37° C., 5% CO2. The culture media was removed, washed twice with 100 μL assay buffer and replaced with 50 μL assay buffer. Cells were rested at room temperature for 20 minutes after which time 25 μL of rolipram (1.2 mM made up in assay buffer containing 2.4% (v/v) dimethylsulphoxide) was added. Cells were incubated with rolipram for 10 minutes after which time test compounds (made up as ×4 concentrated stocks in assay buffer containing 4% (v/v) dimethylsulphoxide) were added and the cells were incubated for 10 minutes at room temperature. Final rolipram concentration in the assay was 300 μM and final vehicle concentration was 1.6% (v/v) dimethylsulphoxide. The reaction was stopped by removing supernatants, washing once with 100 μL assay buffer and replacing with 50 μL lysis buffer. The cell monolayer was frozen at −80° C. for 30 minutes (or overnight).
# The concentration of cAMP (cyclic adenosine monophosphate) in the cell lysate was determined using the AlphaScreen™ methodology. The frozen cell plate was thawed for 20 minutes on a plate shaker then 10 μL of the cell lysate was transferred to a 96-well white plate. 40 μL of mixed AlphaScreen™ detection beads (containing equal volumes of donor beads (pre-incubated with biotinylated cAMP in the dark for 30 minutes) and acceptor beads), was added to each well and the plate incubated at room temperature for 10 hours in the dark. The AlphaScreen™ signal was measured using an EnVision spectrophotometer (Perkin-Elmer Inc.) with the recommended manufacturer's settings. cAMP concentrations were determined by reference to a calibration curve determined in the same experiment using standard cAMP concentrations (made up in lysis buffer in a 96-well tissue-culture-treated plate and frozen/thawed alongside the test samples) and detected using the same protocol. Concentration response curves for agonists were constructed to determine both the pEC50 and Intrinsic Activity.
# [3] = fraction relative to the maximum activity determined for formoterol in each experiment, H292 cells, cAMP
# T2 sequence (P08588 whole entry): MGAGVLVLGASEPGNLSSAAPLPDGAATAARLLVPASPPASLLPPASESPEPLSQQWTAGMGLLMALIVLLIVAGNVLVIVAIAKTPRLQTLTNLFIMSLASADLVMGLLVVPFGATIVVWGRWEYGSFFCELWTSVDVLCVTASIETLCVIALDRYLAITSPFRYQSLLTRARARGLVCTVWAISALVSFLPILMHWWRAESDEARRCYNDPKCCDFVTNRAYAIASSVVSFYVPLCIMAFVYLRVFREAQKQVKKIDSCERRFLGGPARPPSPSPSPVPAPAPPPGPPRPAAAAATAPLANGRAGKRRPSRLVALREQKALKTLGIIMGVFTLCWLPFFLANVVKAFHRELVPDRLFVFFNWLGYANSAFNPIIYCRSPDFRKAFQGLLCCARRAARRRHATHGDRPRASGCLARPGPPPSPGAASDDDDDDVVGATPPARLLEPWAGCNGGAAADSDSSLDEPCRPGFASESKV
# T3 sequence (P07550 whole entry): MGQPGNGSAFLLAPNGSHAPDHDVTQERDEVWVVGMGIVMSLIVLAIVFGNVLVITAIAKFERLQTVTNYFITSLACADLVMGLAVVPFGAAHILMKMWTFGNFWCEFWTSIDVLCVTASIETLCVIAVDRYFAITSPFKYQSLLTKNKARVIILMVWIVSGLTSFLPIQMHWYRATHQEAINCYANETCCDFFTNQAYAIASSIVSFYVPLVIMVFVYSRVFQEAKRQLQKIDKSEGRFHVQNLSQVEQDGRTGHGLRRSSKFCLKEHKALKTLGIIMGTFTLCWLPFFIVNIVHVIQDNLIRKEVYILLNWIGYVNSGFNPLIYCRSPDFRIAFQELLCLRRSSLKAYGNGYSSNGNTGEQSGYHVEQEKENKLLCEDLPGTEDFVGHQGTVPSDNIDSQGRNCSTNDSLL
"EC50 (Adrenergic β2; cAMP production in H292 cells, 300 μM rolipram, 10 minutes with compound, read-out: β2 pEC50 (converted)) [nM]",Structure (SMILES),EC50 [1] [nM],EC50 [2] [nM],Intrinsic Activity (Adrenergic β2; [3]),Intrinsic Activity (Adrenergic β2)
,"O=c1[nH]c2c(O)ccc([C@@H](O)CNCCc3cccc(CNCCc4c(Cl)cccc4Cl)c3)c2s1 [Example 1, 7-{2-[2-(3-{[2-(2,6-Dichloro-phenyl)-ethylamino]-methyl}-phenyl)-ethylamino]-1R-hydroxy-ethyl}-4-hydroxy-3H-benzothiazol-2-one bis-trifluoroacetate salt]",63.1,12.6,0.8,
0.316,"O=c1[nH]c2c(O)ccc([C@@H](O)CNCCc3cccc(CN[C@@H]4C[C@H]4c4ccc(F)cc4)c3)c2s1 [Example 10, 7-{2-[2-(3-{[2S-(4-Fluoro-phenyl)-cycloprop-1R-ylamino]-methyl}-phenyl)-ethylamino]-1R-hydroxy-ethyl}-4-hydroxy-3H-benzothiazol-2-one bis-trifluoroacetate salt]",316,200,1.0,
,"O=c1[nH]c2c(O)ccc([C@@H](O)CNCCc3cccc(CNCc4ccccn4)c3)c2s1 [Example 61, 4-Hydroxy-7-{1R-hydroxy-2-[2-(3-{[(pyridin-2-ylmethyl)-amino]-methyl}-phenyl)-ethylamino]-ethyl}-3H-benzothiazol-2-one bis-hydrochloride salt]",316,79.4,,0.9
